PubChem BioAssay (NCI)
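Five concentrations, 48 hours, 96-well plates. TGI denotes the concentration required for complete inhibition of growth.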

Columns and labels:
Assay in all cases: NCI-60 cell line screen, 48 h
DU-145 prostate = test system: DU-145 prostate
U251 CNS = test system: U251 CNS
SN12C renal = test system: SN12C renal
IGROV1 ovarian = test system: IGROV1 ovarian
BT-549 breast = test system: BT-549 breast
RPMI-8226 leukemia = test system: RPMI-8226 leukemia
SNB-19 CNS = test system: SNB-19 CNS
HOP-62 NSCLC = test system: HOP-62 NSCLC
HS 578T breast = test system: HS 578T breast
SW-620 colon = test system: SW-620 colon
K-562 leukemia = test system: K-562 leukemia
MOLT-4 leukemia = test system: MOLT-4 leukemia
HCC-2998 colon = test system: HCC-2998 colon
SF-268 CNS = test system: SF-268 CNS
HL-60(TB) leukemia = test system: HL-60(TB) leukemia
TK-10 renal = test system: TK-10 renal
HCT-15 colon = test system: HCT-15 colon
NCI-H226 lung = test system: NCI-H226 lung
786-0 renal = test system: 786-0 renal
LOX IMVI melanoma = test system: LOX IMVI melanoma
SF-295 CNS = test system: SF-295 CNS
A498 renal = test system: A498 renal
A549 NSCLC = test system: A549 NSCLC
SR leukemia = test system: SR leukemia
NCI-H23 lung = test system: NCI-H23 lung
MDA-MB-435 = test system: MDA-MB-435
ACHN renal = test system: ACHN renal
UACC-62 melanoma = test system: UACC-62 melanoma
MDA-N = test system: MDA-N
SK-MEL-5 melanoma = test system: SK-MEL-5 melanoma
CAKI-1 renal = test system: CAKI-1 renal
SNB-75 CNS = test system: SNB-75 CNS
OVCAR-3 ovarian = test system: OVCAR-3 ovarian
UO-31 renal = test system: UO-31 renal
CCRF-CEM leukemia = test system: CCRF-CEM leukemia
NCI-H522 lung = test system: NCI-H522 lung
HT29 colon = test system: HT29 colon
OVCAR-8 ovarian = test system: OVCAR-8 ovarian
MDA-MB-231 breast = test system: MDA-MB-231 breast
SF-539 CNS = test system: SF-539 CNS
EKVX NSCLC = test system: EKVX NSCLC
PC-3 prostate = test system: PC-3 prostate
HCT-116 colon = test system: HCT-116 colon
MCF7 breast = test system: MCF7 breast
COLO 205 colon = test system: COLO 205 colon
RXF 393 renal = test system: RXF 393 renal
SK-OV-3 ovarian = test system: SK-OV-3 ovarian
UACC-257 melanoma = test system: UACC-257 melanoma
NCI/ADR-RES ovarian = test system: NCI/ADR-RES ovarian
HOP-92 NSCLC = test system: HOP-92 NSCLC
KM12 colon = test system: KM12 colon
OVCAR-4 ovarian = test system: OVCAR-4 ovarian
OVCAR-5 ovarian = test system: OVCAR-5 ovarian
SK-MEL-28 melanoma = test system: SK-MEL-28 melanoma
NCI-H460 lung = test system: NCI-H460 lung
M14 melanoma = test system: M14 melanoma
SK-MEL-2 melanoma = test system: SK-MEL-2 melanoma

For O=C(/C=C\c1ccc(-c2ccccc2)cc1)c1cccs1, the TGI (DU-145 prostate) was over 100 µM, the TGI (U251 CNS) was over 100 µM and the TGI (SN12C renal) was over 100 µM. For the same molecule, the TGI (IGROV1 ovarian) was over 94.3 µM, the TGI (BT-549 breast) was over 100 µM and the TGI (RPMI-8226 leukemia) was over 100 µM. For the same molecule, the TGI (SNB-19 CNS) was over 100 µM, the TGI (HOP-62 NSCLC) was over 100 µM and the TGI (HS 578T breast) was over 81 µM. It also gave a TGI (SW-620 colon) of over 100 µM, a TGI (K-562 leukemia) of over 100 µM and a TGI (MOLT-4 leukemia) of over 28.1 µM. For the same molecule, the TGI (HCC-2998 colon) was over 100 µM, the TGI (SF-268 CNS) was over 75 µM and the TGI (HL-60(TB) leukemia) was over 31 µM. It also gave a TGI (TK-10 renal) of over 100 µM, a TGI (HCT-15 colon) of over 100 µM and a TGI (NCI-H226 lung) of over 100 µM. The TGI (786-0 renal) was over 100 µM, the TGI (LOX IMVI melanoma) was over 100 µM and the TGI (SF-295 CNS) was over 100 µM. The TGI (A498 renal) was over 27.1 µM, the TGI (A549 NSCLC) was over 100 µM and the TGI (SR leukemia) was over 100 µM. The TGI (NCI-H23 lung) was over 100 µM, the TGI (MDA-MB-435) was over 100 µM and the TGI (ACHN renal) was over 100 µM. It also gave a TGI (UACC-62 melanoma) of over 100 µM, a TGI (MDA-N) of over 100 µM and a TGI (SK-MEL-5 melanoma) of over 100 µM. It also gave a TGI (CAKI-1 renal) of over 100 µM, a TGI (SNB-75 CNS) of over 60.4 µM and a TGI (OVCAR-3 ovarian) of over 100 µM. The TGI (UO-31 renal) was over 100 µM, the TGI (CCRF-CEM leukemia) was 12.5 µM and the TGI (NCI-H522 lung) was over 30.4 µM. It also gave a TGI (HT29 colon) of over 50.3 µM, a TGI (OVCAR-8 ovarian) of over 100 µM and a TGI (MDA-MB-231 breast) of over 100 µM. It also gave a TGI (SF-539 CNS) of over 100 µM, a TGI (EKVX NSCLC) of over 100 µM and a TGI (PC-3 prostate) of over 100 µM. For the same molecule, the TGI (HCT-116 colon) was over 100 µM, the TGI (MCF7 breast) was over 100 µM and the TGI (COLO 205 colon) was over 100 µM. For the same molecule, the TGI (RXF 393 renal) was 46.4 µM, the TGI (SK-OV-3 ovarian) was over 100 µM and the TGI (UACC-257 melanoma) was over 100 µM. The TGI (NCI/ADR-RES ovarian) was over 100 µM, the TGI (HOP-92 NSCLC) was over 100 µM and the TGI (KM12 colon) was over 100 µM. For the same molecule, the TGI (OVCAR-4 ovarian) was over 100 µM, the TGI (OVCAR-5 ovarian) was over 100 µM and the TGI (SK-MEL-28 melanoma) was over 100 µM. The TGI (NCI-H460 lung) was over 100 µM, the TGI (M14 melanoma) was over 100 µM and the TGI (SK-MEL-2 melanoma) was over 100 µM.
